We go through two molecules from patent publication US20100021599A1, “PRESERVATIVE” (LANXESS DEUTSCHLAND GMBH, priority 2006, published 2010).

This test relates to Paecilomyces variotii. The settings on record: single substance alone, fruit-component drink inoculated with conidia, incubated two weeks at 27° C. As to the method:
A drink which contains fruit components was admixed with various concentrations of citric acid and subsequently inoculated with conidia of the fungus Paecilomyces variotii. Subsequently, the inoculated drinks samples were treated with various DMDC concentrations and incubated for two weeks at 27° C.

Read-outs that look alike come from different tables or passages of the source.

In turn, `COC(=O)OC(=O)OC` [DMDC, dimethyl dicarbonate] yielded an MHC above 250 ppm.

As for `O=C(O)CC(O)(CC(=O)O)C(=O)O` [Citric acid, citric acid], the MHC is recorded as >30 000 ppm. The MHC (listed as citric acid) was > 30 000 ppm.
